Earlier results as cited in PMC12521730, “Quantitative dual-isotope preclinical SPECT/CT imaging and biodistribution of the mercury-197m/g theranostic pair with [^197m/gHg]HgCl2 and a [^197m/gHg]Hg-tetrathiol complex as a platform for radiopharmaceutical development” (EJNMMI Radiopharmacy and Chemistry, 2025).

Assays:
[1] = set-up: method as in Randhawa et al. [2023]; settings: 72 h; ref Randhawa et al. [2023]; cited from earlier work
[2] = 24 h; ref Randhawa et al. [2023]; cited from earlier work

SMILES: O=C(CN1CCSCCSCCSCCSCC1)NCc1ccccc1.[Hg+2] [NS4-BA complex]
- intact complex when challenged against GSH [1]: 92 ± 1%
- intact complex in human serum [2]: 74 ± 7%
